# Source: ChEMBL document CHEMBL3588828, “A Selective, Cell-Permeable Nonphosphorylated Bicyclic Peptidyl Inhibitor against Peptidyl-Prolyl Isomerase Pin1” (J Med Chem, 2015)
# The source made the active and inactive calls. The calls are words filed in the database; no cut-off is given here.
# Experiments:
# [1] = target: T1, Peptidyl-prolyl cis-trans isomerase NIMA-interacting 1 (Homo sapiens, UniProt Q13526, S16A/Y23A); experiment: Binding affinity to N-terminal MBP fused and Texas-red-labeled full-length human Pin1 S16A/Y23A mutant expressed in Escherichia coli assessed as increase in fluorescence anisotropy by spectrofluorimetry; details: read-out: Kd
# T1 sequence (Q13526 whole entry S16A/Y23A, the tested form may be a part): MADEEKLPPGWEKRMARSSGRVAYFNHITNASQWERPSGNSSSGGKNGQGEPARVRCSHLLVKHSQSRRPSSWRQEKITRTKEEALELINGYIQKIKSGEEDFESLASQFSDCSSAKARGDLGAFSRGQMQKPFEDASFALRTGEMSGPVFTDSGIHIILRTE
# [2] = Stability in 25% human serum assessed as compound degradation at 5 uM after 3 hrs incubated at 37 degC by reversed-phase HPLC method; assay type: ADME, cell-free; details: read-out: Drug degradation
# [3] = system: Serum; experiment: Drug metabolism in 25% human serum assessed as compound 2 formation at 5 uM incubated at 37 degC by MALDI-TOF mass spectrometry; assay type: ADME, cell-free
# [4] = system: HeLa; experiment: Drug uptake in human HeLa cells assessed as mean fluorescence intensity at 5 uM using FITC-labeled compound incubated for 2 hrs by flow cytometry (reference value: 86); assay type: ADME, cell-based
# [5] = system: HeLa; experiment: Antiproliferative activity against human HeLa cells assessed as reduction in cell growth incubated for 72 hrs by MTT assay; assay type: functional, cell-based; details: Homo sapiens, HeLa, 72 h; read-out: IC50
# [6] = system: Peptidyl-prolyl cis-trans isomerase NIMA-interacting 1 (Homo sapiens), Q13526 [S16A,Y23A]; experiment: (§1) Inhibition of FITC-labeled peptide-1 binding to N-terminal MBP fused and Texas-red-labeled full-length human Pin1 S16A/Y23A mutant expressed in Escherichia coli assessed as increase in fluorescence anisotropy by spectrofluorimetry
# Peptidyl-prolyl cis-trans isomerase NIMA-interacting 1 (Homo sapiens), Q13526 [S16A,Y23A], sequence (Q13526 whole entry S16A/Y23A, the tested form may be a part): as above
# [7] = target: T1, Peptidyl-prolyl cis-trans isomerase NIMA-interacting 1; experiment: as §1
# [8] = system: Peptidyl-prolyl cis-trans isomerase NIMA-interacting 1 (Homo sapiens), Q13526 [S16A,Y23A]; experiment: (§2) Inhibition of N-terminal MBP fused and Texas-red-labeled full-length human Pin1 S16A/Y23A mutant expressed in Escherichia coli pre-incubated for 10 mins before addition of Suc-Ala-Glu-Pro-Phe-pNA substrate in presence of alpha-chymotrypsin by UV/Vis spectrophotometry
# [9] = target: T1, Peptidyl-prolyl cis-trans isomerase NIMA-interacting 1; experiment: as §2
# [10] = target: Albumin (Bos taurus, UniProt P02769); experiment: Binding affinity to bovine serum albumin; assay type: ADME
# Albumin, sequence (P02769 whole entry): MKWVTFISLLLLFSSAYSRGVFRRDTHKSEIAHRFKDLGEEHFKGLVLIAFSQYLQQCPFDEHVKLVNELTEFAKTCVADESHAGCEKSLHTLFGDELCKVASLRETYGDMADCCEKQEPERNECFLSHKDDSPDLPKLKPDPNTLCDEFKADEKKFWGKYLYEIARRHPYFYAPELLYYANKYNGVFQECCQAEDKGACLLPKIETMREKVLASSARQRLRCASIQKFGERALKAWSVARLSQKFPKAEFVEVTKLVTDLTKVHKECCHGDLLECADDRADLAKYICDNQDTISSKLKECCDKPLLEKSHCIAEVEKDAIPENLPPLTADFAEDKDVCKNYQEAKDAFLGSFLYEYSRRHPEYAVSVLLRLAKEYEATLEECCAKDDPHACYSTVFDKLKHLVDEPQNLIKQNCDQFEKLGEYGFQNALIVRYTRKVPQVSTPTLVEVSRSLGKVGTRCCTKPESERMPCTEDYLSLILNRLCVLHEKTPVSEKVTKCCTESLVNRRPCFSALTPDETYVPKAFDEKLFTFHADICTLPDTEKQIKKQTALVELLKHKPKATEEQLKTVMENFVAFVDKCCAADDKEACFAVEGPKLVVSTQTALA
# [11] = target: T2, Tyrosine-protein phosphatase non-receptor type 1 (Homo sapiens) (UniProt P18031); experiment: Binding affinity to PTP1B (unknown origin)
# T2 sequence (whole entry): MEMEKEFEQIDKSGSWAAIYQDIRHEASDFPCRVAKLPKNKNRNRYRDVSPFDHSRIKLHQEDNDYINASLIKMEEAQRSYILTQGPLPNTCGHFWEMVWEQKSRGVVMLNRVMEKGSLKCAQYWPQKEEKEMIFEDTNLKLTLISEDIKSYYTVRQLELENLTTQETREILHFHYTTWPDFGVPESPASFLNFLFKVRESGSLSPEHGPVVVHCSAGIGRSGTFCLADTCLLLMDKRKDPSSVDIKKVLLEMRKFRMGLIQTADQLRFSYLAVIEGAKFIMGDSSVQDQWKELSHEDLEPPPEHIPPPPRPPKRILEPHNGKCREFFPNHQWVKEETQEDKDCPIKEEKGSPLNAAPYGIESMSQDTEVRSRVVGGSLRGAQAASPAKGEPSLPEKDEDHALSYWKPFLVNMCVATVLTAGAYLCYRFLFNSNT
# [12] = target: Tyrosine-protein phosphatase non-receptor type 6 (Homo sapiens) (UniProt P29350); experiment: Binding affinity to SHP1 (unknown origin)
# Tyrosine-protein phosphatase non-receptor type 6 (Homo sapiens), sequence (P29350 whole entry): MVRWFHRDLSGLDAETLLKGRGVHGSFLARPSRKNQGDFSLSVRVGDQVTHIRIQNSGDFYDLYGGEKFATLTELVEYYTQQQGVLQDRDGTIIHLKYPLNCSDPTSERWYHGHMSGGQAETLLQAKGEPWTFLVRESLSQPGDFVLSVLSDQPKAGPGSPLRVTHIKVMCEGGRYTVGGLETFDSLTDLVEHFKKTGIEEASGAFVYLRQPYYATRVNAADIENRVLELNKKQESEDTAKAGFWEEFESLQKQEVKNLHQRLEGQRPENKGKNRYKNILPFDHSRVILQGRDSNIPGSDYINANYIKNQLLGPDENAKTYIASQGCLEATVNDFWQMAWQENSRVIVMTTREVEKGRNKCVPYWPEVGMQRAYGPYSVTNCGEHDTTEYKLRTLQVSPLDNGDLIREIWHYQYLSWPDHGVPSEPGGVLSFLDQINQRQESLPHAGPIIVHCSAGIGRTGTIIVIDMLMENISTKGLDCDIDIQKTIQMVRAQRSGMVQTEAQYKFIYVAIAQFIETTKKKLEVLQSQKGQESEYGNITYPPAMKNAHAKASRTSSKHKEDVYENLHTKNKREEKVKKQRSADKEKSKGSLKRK
# [13] = target: T3, Tyrosine-protein phosphatase non-receptor type 11 (Homo sapiens) (UniProt Q06124); experiment: Binding affinity to SHP2 (unknown origin)
# T3 sequence (whole entry): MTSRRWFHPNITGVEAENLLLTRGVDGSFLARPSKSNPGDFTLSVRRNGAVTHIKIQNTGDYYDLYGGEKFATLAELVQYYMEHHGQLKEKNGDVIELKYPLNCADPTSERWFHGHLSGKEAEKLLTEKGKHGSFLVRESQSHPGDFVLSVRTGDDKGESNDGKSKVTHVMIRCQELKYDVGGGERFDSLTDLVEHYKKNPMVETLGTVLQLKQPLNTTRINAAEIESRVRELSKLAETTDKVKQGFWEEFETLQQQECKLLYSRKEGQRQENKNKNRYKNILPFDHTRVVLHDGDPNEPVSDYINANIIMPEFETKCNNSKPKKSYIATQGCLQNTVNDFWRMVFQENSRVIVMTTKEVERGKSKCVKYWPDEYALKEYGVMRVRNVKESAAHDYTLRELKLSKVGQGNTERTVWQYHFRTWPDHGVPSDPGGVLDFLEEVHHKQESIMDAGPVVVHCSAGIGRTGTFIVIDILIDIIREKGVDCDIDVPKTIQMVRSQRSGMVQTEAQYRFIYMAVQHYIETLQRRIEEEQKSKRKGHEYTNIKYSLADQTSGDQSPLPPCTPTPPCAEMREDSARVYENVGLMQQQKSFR
# [14] = target: Growth factor receptor-bound protein 2 (Homo sapiens) (UniProt P62993); experiment: Binding affinity to Grb2 SH2 domain (unknown origin)
# Growth factor receptor-bound protein 2 (Homo sapiens), sequence (P62993 whole entry, looked up, the tested form may be a part): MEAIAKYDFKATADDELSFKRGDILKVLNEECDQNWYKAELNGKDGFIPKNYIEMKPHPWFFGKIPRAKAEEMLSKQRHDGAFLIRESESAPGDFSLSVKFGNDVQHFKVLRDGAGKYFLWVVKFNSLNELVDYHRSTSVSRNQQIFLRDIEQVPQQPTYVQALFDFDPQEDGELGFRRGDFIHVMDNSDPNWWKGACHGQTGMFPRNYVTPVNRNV
# [15] = target: GTPase KRas (Homo sapiens) (UniProt P01116); experiment: Binding affinity to K-Ras (unknown origin)
# GTPase KRas (Homo sapiens), sequence (P01116 whole entry, looked up): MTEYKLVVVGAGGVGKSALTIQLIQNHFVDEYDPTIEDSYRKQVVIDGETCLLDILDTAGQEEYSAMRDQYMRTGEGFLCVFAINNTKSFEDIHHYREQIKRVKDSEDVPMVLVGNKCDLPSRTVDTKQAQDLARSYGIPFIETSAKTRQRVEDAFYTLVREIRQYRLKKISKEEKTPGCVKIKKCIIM
# [16] = target: Tumor necrosis factor (Homo sapiens) (UniProt P01375); experiment: Binding affinity to TNFalpha (unknown origin)
# Tumor necrosis factor (Homo sapiens), sequence (P01375 whole entry): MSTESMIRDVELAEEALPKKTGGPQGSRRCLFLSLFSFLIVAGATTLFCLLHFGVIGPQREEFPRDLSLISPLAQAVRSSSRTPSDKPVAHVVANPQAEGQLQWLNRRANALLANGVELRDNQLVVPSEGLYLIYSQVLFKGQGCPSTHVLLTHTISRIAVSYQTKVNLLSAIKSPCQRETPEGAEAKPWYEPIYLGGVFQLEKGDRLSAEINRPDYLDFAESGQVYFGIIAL
# [17] = target: T4, Peptidyl-prolyl cis-trans isomerase NIMA-interacting 4 (Homo sapiens, UniProt Q9Y237); experiment: Inhibition of Pin4 (unknown origin) at 5 uM pre-incubated for 10 mins before addition of Suc-Ala-Glu-Pro-Phe-pNA substrate in presence of alpha-chymotrypsin by UV/Vis spectrophotometry
# T4 sequence (Q9Y237 whole entry): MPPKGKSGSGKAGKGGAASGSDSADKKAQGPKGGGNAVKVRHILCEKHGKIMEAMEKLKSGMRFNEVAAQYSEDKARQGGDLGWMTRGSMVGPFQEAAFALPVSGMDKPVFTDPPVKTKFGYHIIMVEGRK
# [18] = target: T4, Peptidyl-prolyl cis-trans isomerase NIMA-interacting 4; experiment: Inhibition of Pin4 (unknown origin) pre-incubated for 10 mins before addition of Suc-Ala-Glu-Pro-Phe-pNA substrate in presence of alpha-chymotrypsin by UV/Vis spectrophotometry
# [19] = target: Peptidyl-prolyl cis-trans isomerase A (Homo sapiens) (UniProt P62937); experiment: Inhibition of cyclophilin A (unknown origin) up to 5 uM pre-incubated for 10 mins before addition of Suc-Ala-Glu-Pro-Phe-pNA substrate in presence of alpha-chymotrypsin by UV/Vis spectrophotometry
# Peptidyl-prolyl cis-trans isomerase A (Homo sapiens), sequence (P62937 whole entry, looked up): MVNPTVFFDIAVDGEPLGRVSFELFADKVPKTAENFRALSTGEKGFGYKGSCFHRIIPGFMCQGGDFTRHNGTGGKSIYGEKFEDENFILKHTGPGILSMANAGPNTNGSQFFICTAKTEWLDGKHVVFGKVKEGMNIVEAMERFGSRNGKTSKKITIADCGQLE
# [20] = Stability in 25% human serum assessed as intact parent compound level at 5 uM after 6 hrs incubated at 37 degC by reversed-phase HPLC method; assay type: ADME, cell-free; details: read-out: Stability
# [21] = system: HeLa; experiment: Growth inhibition of human HeLa cells at 5 uM incubated for 3 days by MTT assay; assay type: functional; details: 72 h, read-out: GI
# [22] = target: Peptidyl-prolyl cis-trans isomerase NIMA-interacting 1 (Homo sapiens) (UniProt Q13526); experiment: Inhibition of Pin1 in human HeLa cells assessed as increase in PML protein levels at 0.2 uM incubated for 2 hrs by Western blotting method relative to untreated control; assay type: cell-based
# Peptidyl-prolyl cis-trans isomerase NIMA-interacting 1 (Homo sapiens), sequence (Q13526 whole entry): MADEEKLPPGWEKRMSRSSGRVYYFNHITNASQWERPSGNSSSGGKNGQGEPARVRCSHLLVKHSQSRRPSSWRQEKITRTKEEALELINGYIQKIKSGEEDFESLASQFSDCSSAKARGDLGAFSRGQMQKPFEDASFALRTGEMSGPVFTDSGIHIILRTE
# [23] = target: Peptidyl-prolyl cis-trans isomerase NIMA-interacting 1 (Homo sapiens) (UniProt Q13526); experiment: Inhibition of Pin1 in human HeLa cells assessed as increase in PML protein levels at 1 uM incubated for 2 hrs by Western blotting method relative to untreated control; assay type: cell-based
# [24] = system: FKBP1A; experiment: Inhibition of FKBP12 (unknown origin) up to 5 uM pre-incubated for 10 mins before addition of Suc-Ala-Glu-Pro-Phe-pNA substrate in presence of alpha-chymotrypsin by UV/Vis spectrophotometry; details: Homo sapiens
# [25] = system: Serum; experiment: Drug level in 25% human serum treated with at 5 uM peptide-1 assessed as compound formation incubated at 37 degC by MALDI-TOF mass spectrometry; assay type: ADME, cell-free
smiles,measurement,setting,value
C[C@@H]1NC(=O)[C@H](CCCNC(=N)N)NC(=O)[C@H](Cc2ccc3ccccc3c2)NC(=O)[C@@H]2CCCCN2C(=O)[C@@H]([C@H](C)OP(=O)(O)O)NC(=O)CN(C)C(=O)[C@@H](C)NC(=O)c2cc3cc(c2)C(=O)NC[C@H](NC(=O)[C@@H](C)NC1=O)C(=O)N[C@@H](Cc1ccccc1)C(=O)N[C@@H](Cc1ccc2ccccc2c1)C(=O)N[C@@H](CCCNC(=N)N)C(=O)N[C@@H](CCCNC(=N)N)C(=O)N[C@@H](CCCNC(=N)N)C(=O)N[C@@H](CCCNC(=N)N)C(=O)N[C@H](C(=O)N[C@@H](CCCCN)C(=O)O)CNC3=O,Kd,[1],0.072 µM
same,"metabolised at 3 h, 5 µM",[2],50%
same,Drug metabolism,[3],metabolite_detected
same,Flu intensity,[4],2040
same,IC50,[5],2.5 µM
C[C@@H]1NC(=O)[C@H](CCCNC(=N)N)NC(=O)[C@H](Cc2ccc3ccccc3c2)NC(=O)[C@H]2CCCCN2C(=O)[C@@H]([C@H](C)O)NC(=O)[C@H](Cc2ccc(F)cc2)NC(=O)[C@@H](Cc2ccc(F)cc2)NC(=O)c2cc3cc(c2)C(=O)NC[C@H](NC(=O)[C@@H](C)NC1=O)C(=O)N[C@@H](Cc1ccccc1)C(=O)N[C@@H](Cc1ccc2ccccc2c1)C(=O)N[C@@H](CCCNC(=N)N)C(=O)N[C@@H](CCCNC(=N)N)C(=O)N[C@@H](CCCNC(=N)N)C(=O)N[C@@H](CCCNC(=N)N)C(=O)N[C@H](C(=O)N[C@@H](CCCCN)C(=O)O)CNC3=O,Kd,[1],0.12 µM
same,inhibition,[6],Dose-dependent effect
same,IC50,[7],0.19 µM
same,inhibition,[8],Dose-dependent effect
same,IC50,[9],0.17 µM
same,Kd,[10],20 µM
same,Activity,[11],inactive
same,Activity,[12],inactive
same,Activity,[13],inactive
same,Activity,[14],inactive
same,Activity,[15],inactive
same,Activity,[16],inactive
same,inhibition,[17],15%
same,IC50,[18],34 µM
same,inhibition,[19],inactive
same,"remaining at 6 h, 5 µM",[20],97%
same,Flu intensity,[4],8320
same,IC50,[5],1 µM
same,inhibition of growth at 5 µM,[21],> 60%
same,fold change (FC),[22],1.8
same,fold change (FC),[23],3.3
same,inhibition,[24],inactive
C[C@@H]1NC(=O)[C@H](CCCNC(=N)N)NC(=O)[C@H](Cc2ccc3ccccc3c2)NC(=O)[C@@H]2CCCCN2C(=O)[C@@H]([C@H](C)O)NC(=O)CN(C)C(=O)[C@@H](C)NC(=O)c2cc3cc(c2)C(=O)NC[C@H](NC(=O)[C@@H](C)NC1=O)C(=O)N[C@@H](Cc1ccccc1)C(=O)N[C@@H](Cc1ccc2ccccc2c1)C(=O)N[C@@H](CCCNC(=N)N)C(=O)N[C@@H](CCCNC(=N)N)C(=O)N[C@@H](CCCNC(=N)N)C(=O)N[C@@H](CCCNC(=N)N)C(=O)N[C@H](C(=O)N[C@@H](CCCCN)C(=O)O)CNC3=O,Kd,[1],0.62 µM
same,Drug metabolism,[25],metabolite_detected
